Toxic doses and inconclusive results are not listed. No stated cut-off is given here; in the data, active means T/C of 150% or more; inactive means T/C below 125%.
System: L1210 leukemia ip in BDF1 mice, survival T/C
Test: NCI In Vivo Anticancer Drug Screen. Data for tumor model L1210 Leukemia (intraperitoneal) in B6D2F1 (BDF1) mice
Details: endpoint: mean survival time, higher = longer survival
Method in brief: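 Tumor was transplanted into mice, which were then dosed with test compound or vehicle alone. Survival was recorded for each group, and the treated figure was expressed relative to the control figure.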

[1] = dose: 100.0 mg/kg/injection, schedule: Q01DX009 (ip), vehicle: saline with Tween-80
[2] = dose: 200.0 mg/kg/injection, schedule: Q01DX009 (ip), vehicle: saline with Tween-80
[3] = dose: 400.0 mg/kg/injection, schedule: Q01DX009 (ip), vehicle: saline with Tween-80
[4] = dose: 100.0 mg/kg/injection, schedule: Q01DX001 (ip), vehicle: saline
[5] = dose: 100.0 mg/kg/injection, schedule: Q01DX009 (ip), vehicle: saline
[6] = dose: 200.0 mg/kg/injection, schedule: Q01DX009 (ip), vehicle: saline
[7] = dose: 15.0 mg/kg/injection, schedule: Q01DX001 (ip), vehicle: carboxymethylcellulose (CMC)
[8] = dose: 30.0 mg/kg/injection, schedule: Q01DX001 (ip), vehicle: carboxymethylcellulose (CMC)
[9] = dose: 100.0 mg/kg/injection, schedule: Q04DX003 (ip), vehicle: saline with Tween-80
[10] = dose: 200.0 mg/kg/injection, schedule: Q04DX003 (ip), vehicle: saline with Tween-80
[11] = dose: 400.0 mg/kg/injection, schedule: Q04DX003 (ip), vehicle: saline with Tween-80
[12] = dose: 25.0 mg/kg/injection, schedule: Q01DX009 (ip), vehicle: saline
[13] = dose: 50.0 mg/kg/injection, schedule: Q01DX009 (ip), vehicle: saline
[14] = dose: 75.0 mg/kg/injection, schedule: Q01DX001 (ip), vehicle: saline
[15] = dose: 25.0 mg/kg/injection, schedule: Q04DX003 (ip), vehicle: saline
[16] = dose: 100.0 mg/kg/injection, schedule: Q01DX005 (ip), vehicle: saline
[17] = dose: 200.0 mg/kg/injection, schedule: Q01DX005 (ip), vehicle: saline
[18] = dose: 50.0 mg/kg/injection, schedule: Q04DX003 (ip), vehicle: saline
[19] = dose: 100.0 mg/kg/injection, schedule: Q04DX003 (ip), vehicle: saline

Measured: T/C

Cc1ccc(SCc2c(COc3ccc(Cl)cc3)sc3ccc(Cl)cc23)cc1
inactive: [1] 102 % of control | [2] 119 % of control | [3] 97 % of control

Cc1cccc(NC(=O)CCc2ccc(Cl)cc2)n1
inactive: [4] 95 % of control

CNC(=O)Nc1ncnn1Cc1ccccc1
inactive: [5] 92 % of control | [6] 97 % of control

CN(C)CCO/C(CN(C)C)=C(\C#N)c1ccccc1
inactive: [7] 92 % of control | [8] 95 % of control

CC1=CC(=O)N(N)C1=O
inactive: [1] 102 % of control | [9] 98 % of control | [2] 104 % of control | [10] 100 % of control | [3] 100 % of control | [11] 96 % of control

CC/C(C)=N\NC(=O)c1cccnc1
inactive: [5] 110 % of control | [6] 110 % of control

O=C(Sc1ccccc1)N(c1ccccc1)c1ccccc1
inactive: dose: 100.0 mg/kg/injection, schedule: Q04DX002 (ip), vehicle: gum acacia 117 % of control | dose: 200.0 mg/kg/injection, schedule: Q04DX002 (ip), vehicle: gum acacia 101 % of control | dose: 400.0 mg/kg/injection, schedule: Q04DX002 (ip), vehicle: gum acacia 96 % of control

Cc1cc(Cc2cc(C)c(O)c(C(C)(C)C)c2)cc(C(C)(C)C)c1O
inactive: dose: 50.0 mg/kg/injection, schedule: Q04DX002 (ip), vehicle: other 93 % of control | dose: 100.0 mg/kg/injection, schedule: Q04DX002 (ip), vehicle: other 87 % of control | dose: 200.0 mg/kg/injection, schedule: Q04DX002 (ip), vehicle: other 90 % of control

CC1(C)OB(C(Br)(B2OC(C)(C)C(C)(C)O2)B2OC(C)(C)C(C)(C)O2)OC1(C)C
inactive: dose: 100.0 mg/kg/injection, schedule: Q01DX001 (ip), vehicle: Klucel (hydroxypropylcellulose) (HPC) 100 % of control | dose: 200.0 mg/kg/injection, schedule: Q01DX001 (ip), vehicle: Klucel (hydroxypropylcellulose) (HPC) 100 % of control | dose: 400.0 mg/kg/injection, schedule: Q01DX001 (ip), vehicle: Klucel (hydroxypropylcellulose) (HPC) 108 % of control

Nc1ccc(S(=O)(=O)S(=O)(=O)c2ccc(N)cc2)cc1
inactive: [9] 93 % of control | [10] 86 % of control | [11] 91 % of control

CC1(C)N=C(N)N=C(N)N1c1ccccc1F
inactive: [12] 93 % of control | dose: 38.0 mg/kg/injection, schedule: Q01DX001 (ip), vehicle: saline 101 % of control | [13] 91 % of control | [14] 101 % of control | dose: 75.0 mg/kg/injection, schedule: Q01DX009 (ip), vehicle: saline 110 % of control

c1cnc2c3c(ccc2c1)CN(C1CCCCC1)CO3
inactive: dose: 100.0 mg/kg/injection, schedule: Q04DX003 (ip), vehicle: saline sonified 94 % of control | dose: 200.0 mg/kg/injection, schedule: Q04DX003 (ip), vehicle: saline sonified 91 % of control

O=C(O)c1cccc2c1-c1ccccc1/C2=N\O
inactive: [4] 100 % of control | dose: 200.0 mg/kg/injection, schedule: Q01DX001 (ip), vehicle: saline 110 % of control | dose: 400.0 mg/kg/injection, schedule: Q01DX001 (ip), vehicle: saline 104 % of control

COC(=O)C(C)NC(=O)CNC(=O)CNC(=O)OCc1ccccc1 (stereo unspecified)
inactive: dose: 100.0 mg/kg/injection, schedule: Q04DX003 (ip), vehicle: Klucel (hydroxypropylcellulose) (HPC) 97 % of control | dose: 200.0 mg/kg/injection, schedule: Q04DX003 (ip), vehicle: Klucel (hydroxypropylcellulose) (HPC) 100 % of control | dose: 400.0 mg/kg/injection, schedule: Q04DX003 (ip), vehicle: Klucel (hydroxypropylcellulose) (HPC) 95 % of control

Oc1ccc(N=Cc2ccccn2)cc1
inactive: dose: 100.0 mg/kg/injection, schedule: Q01DX001 (ip), vehicle: carboxymethylcellulose (CMC) 96 % of control | dose: 200.0 mg/kg/injection, schedule: Q01DX001 (ip), vehicle: carboxymethylcellulose (CMC) 105 % of control | dose: 400.0 mg/kg/injection, schedule: Q01DX001 (ip), vehicle: carboxymethylcellulose (CMC) 98 % of control

CC(=O)Oc1ccc2c(c1)C(=O)CCCCCC(=O)O2
inactive: dose: 50.0 mg/kg/injection, schedule: Q04DX003 (ip), vehicle: saline with Tween-80 95 % of control | [10] 117 % of control

Nc1csc2cccc[n+]12
inactive: [15] 100 % of control | [4] 96 % of control

O=c1[nH]cnc2c1ncn2C1SC(CO)C(O)C1O (stereo unspecified)
inactive: [16] 103 % of control | [17] 106 % of control

CC(=O)OC1C(CF)OC(n2ccc(=O)[nH]c2=O)C1OC(C)=O (stereo unspecified)
inactive: [16] 105 % of control | [17] 123 % of control

NC(N)=NC(N)=Nc1ccccc1-c1ccccc1
inactive: dose: 100.0 mg/kg/injection, schedule: Q01DX009 (ip), vehicle: Klucel (hydroxypropylcellulose) (HPC) 111 % of control | dose: 200.0 mg/kg/injection, schedule: Q01DX009 (ip), vehicle: Klucel (hydroxypropylcellulose) (HPC) 103 % of control | dose: 400.0 mg/kg/injection, schedule: Q01DX009 (ip), vehicle: Klucel (hydroxypropylcellulose) (HPC) 86 % of control

Fc1ccc(Cl)c2cccnc12
inactive: [14] 105 % of control | dose: 150.0 mg/kg/injection, schedule: Q01DX001 (ip), vehicle: saline 102 % of control

Cc1cc[n+](C)c2ccccc12
inactive: dose: 9.37 mg/kg/injection, schedule: Q01DX009 (ip), vehicle: saline with Tween-80 101 % of control | dose: 18.75 mg/kg/injection, schedule: Q01DX009 (ip), vehicle: saline with Tween-80 112 % of control | dose: 37.5 mg/kg/injection, schedule: Q01DX009 (ip), vehicle: saline with Tween-80 100 % of control | dose: 37.5 mg/kg/injection, schedule: Q04DX003 (ip), vehicle: saline 100 % of control | [14] 103 % of control

Cc1ccccc1[P+](Cc1ccccc1)(c1ccccc1C)c1ccccc1C
inactive: [7] 96 % of control | [8] 94 % of control | dose: 60.0 mg/kg/injection, schedule: Q01DX001 (ip), vehicle: carboxymethylcellulose (CMC) 94 % of control

COc1cc(OC)c(OC)cc1/C=N/Nc1ccc(C(=O)O)cc1
inactive: [1] 95 % of control | [9] 96 % of control | [2] 97 % of control | [10] 94 % of control | [3] 101 % of control | [11] 98 % of control

NC1=NCc2ccccc21
inactive: dose: 12.5 mg/kg/injection, schedule: Q04DX003 (ip), vehicle: saline 102 % of control | [15] 93 % of control | [18] 91 % of control

Nc1nc(N)c2nc(CNC3CCCCC3)cnc2n1
inactive: dose: 20.0 mg/kg/injection, schedule: Q01DX009 (ip), vehicle: Klucel (hydroxypropylcellulose) (HPC) 95 % of control | dose: 40.0 mg/kg/injection, schedule: Q01DX009 (ip), vehicle: Klucel (hydroxypropylcellulose) (HPC) 93 % of control | dose: 80.0 mg/kg/injection, schedule: Q01DX009 (ip), vehicle: Klucel (hydroxypropylcellulose) (HPC) 97 % of control

O=S(=O)(O)c1ccccc1/C=N\N=C\c1ccccc1S(=O)(=O)O
inactive: [5] 107 % of control | [19] 107 % of control | [6] 112 % of control | dose: 200.0 mg/kg/injection, schedule: Q04DX003 (ip), vehicle: saline 107 % of control | dose: 265.0 mg/kg/injection, schedule: Q04DX003 (ip), vehicle: saline 107 % of control | dose: 400.0 mg/kg/injection, schedule: Q01DX009 (ip), vehicle: saline 105 % of control | dose: 400.0 mg/kg/injection, schedule: Q04DX003 (ip), vehicle: saline 104 % of control | dose: 600.0 mg/kg/injection, schedule: Q04DX003 (ip), vehicle: saline 93 % of control

CC(=O)C(Sc1ccccc1[N+](=O)[O-])C(C)=O.[Cr]
inactive: dose: 50.0 mg/kg/injection, schedule: Q01DX001 (ip), vehicle: other 94 % of control | dose: 100.0 mg/kg/injection, schedule: Q01DX001 (ip), vehicle: other 88 % of control | dose: 400.0 mg/kg/injection, schedule: Q01DX001 (ip), vehicle: other 88 % of control

CC(N)C(O)c1cccc(O)c1 (stereo unspecified)
inactive: dose: 6.25 mg/kg/injection, schedule: Q01DX009 (ip), vehicle: saline 117 % of control | dose: 12.5 mg/kg/injection, schedule: Q01DX009 (ip), vehicle: saline 100 % of control | [12] 105 % of control | [15] 108 % of control | [13] 100 % of control | [18] 105 % of control | [5] 117 % of control | [19] 97 % of control
